Experimental data from patent US20260123631A1, “NATURAL PORPHIN SALT AND USE THEREOF AS PLANT GROWTH REGULATOR AND PLANT IMMUNITY INDUCER” (NANJING BOSTEC BIOLOGICAL ENGINEERING CO., LTD, priority 2022, published 2026).

What was measured:
chlorophyllase = test: In vitro chlorophyllase-inhibiting activity test; type: biochemical, mung bean; details: substrate chlorophyll 120 ppm, sample 0.3 ppm to 30.0 ppm
Procedure: A chlorophyllase inhibition rate of a salt sample solution at each concentration was determined, and an IC50 value for a chlorophyllase inhibition activity of a salt sample was calculated.

sheath blight in rice = test: Field control of sheath blight in rice; type: in vivo, rice (Nanjing 9108); details: 3.0 mg/mu sprayed 3 times (0.100, 0.067, 0.067 ppm)
Procedure: A test sample was dissolved, diluted, thoroughly stirred, and then applied, with an application area of 3 mu for each treatment. Before harvesting, five-point sampling (20 m^2 per sampling point) was conducted for each treatment to determine the details of sheath blight in rice.

leaf blast in rice = test: Field control of leaf blast in rice; type: in vivo, rice (Nanjing 9108); details: 3 mg/mu sprayed 3 times (0.1, 0.067, 0.067 ppm)
Procedure: The experiment was conducted according to experimental specifications in the field efficacy standard of GB/T17980.19-2000. In the experiment, the following two treatments were set: a first treatment: sodium iron chlorin was applied, and a second treatment: a blank control (water) was applied. A test sample was fully dissolved and diluted, and then applied. Based on the characteristics of disease and pest control, an agent was applied once at each of a late tillering stage (Jul. 22, 2021), a jointing-booting stage (Aug. 16, 2021), and a full heading stage (Aug. 30, 2021). […] Water amounts required per mu for the three times were 30 L, 45 L, and 45 L (sample concentrations: 0.1 ppm, 0.067 ppm, and 0.067 ppm), respectively. An area for each treatment was 3 mu. According to a five-point sampling method, 5 sampling points (20 m^2 per sampling point) were set for each treatment. The occurrence of leaf blast in rice was investigated in the field before harvesting.

tobacco = test: Spraying on tobacco to improve a yield; type: in vivo, tobacco (Yunyan 87); details: 45 L per mu
Procedure: Method: Four spraying concentrations were set. For each treatment, four plots were adopted, with each plot of 20 m^2. […] During harvesting, sampling was conducted to count a plant height, a leaf length, a leaf width, and a single-leaf weight. All tobacco leaves of the plots were baked into flue-cured tobacco. […]

[1] = system: Phytophthora capsici LT263; test: Inducing resistance of Nicotiana benthamiana leaves to phytophthora blight; type: in vivo; details: inoculated on day 7 and day 10, read 36 h after inoculation
Procedure: At 36 h after the inoculation, results were observed.

Phytophthora capsici = test: Pot experiment: resistance of pepper to phytophthora blight; type: in vivo; details: 2.0 ppm sprayed on pepper seedlings (Sujiao No. 5), inoculated 3 d later
Procedure: Preparation of Phytophthora capsici zoospores: Fungal discs were collected at an edge of a newly-activated Phytophthora capsici plate. 6 mm fungal discs were picked with a needle and transferred to an empty Petri dish with a diameter of 9 cm, with fungi facing up and 10 fungal discs for each plate. 15 mL of sterilized water was added to the Petri dish, and the Petri dish was placed in a clean bench under light. The water was changed once every 30 min for 3 times in total. The remaining wastewater was removed by a pipette, and then 10 mL of the V8 liquid medium was added. The Petri dish was incubated in a 25° C. incubator for 24 h in the dark to induce the production of a large number of sporangiospores. Then the Petri dish was placed in a 4° C. refrigerator for 30 min and then incubated in a 25° C. incubator for 30 min, such that a large number of zoospores were released. 10 L of a sample was collected, and observed and counted with a hemocytometer under a microscope. The remaining sample was collected for later use.
Pepper seedlings at a 4-6 leaf stage were transplanted, with one plant in each pot. […] 3 replicates were set for each treatment, and 18 pots were adopted for each replicate. After the treatment, the observation was conducted regularly once a day. An incidence rate of pepper was recorded, and a disease index and a control efficiency were counted. […]

rice = test: Alleviation of herbicide damage in rice; type: in vivo, rice (Jinjing 818); details: 0.25 ppm
Procedure: Method: A treatment plot of 1.5 mu and a control plot of 1.5 mu were set. The sample was sprayed twice after the herbicide damage occurred in rice sprayed with a herbicide. Clear water was adopted as a blank control. Specific operations were as follows:
On June 20 when weeds had 3 leaves and rice had 3 to 3.5 leaves, the treatment plot and the control plot both were treated with 4% imazamox at 200 mL/mu and 10% pyribenzoxim at 40 mL/mu by a stem and leaf spray method, with 30 kg of water per mu. One week later, a weeding effect was prominent, but rice underwent obvious pesticide damage. 10 d after the herbicide application (June 30), the treatment plot was sprayed with the sample at 7.5 mg/mu by a stem and leaf spray method, with a solution of 30 L per mu. The control plot was sprayed with clear water. At an inflorescence emergence stage of rice (August 25), the spraying was conducted once again by the same method.

DTA/TG thermal analysis = type: physicochemical; details: nitrogen, 10° C./min, 25° C. to 500° C.
Procedure: Test instrument: Shimadzu DTG-60 DTA-TG synchronous analyzer.
Test samples: Sodium iron chlorin and iron chlorin.
Reference: Aluminum oxide.
Heating rate: 10° C./min.
Heating range: 25° C. to 500° C.
Sample weight: 4.3 mg to 4.5 mg.
Analysis software: ta60WS Ver. 2.11.
Results were shown in FIG. 1, including a DTA comparison chart (the upper part in FIG. 1) and a TG comparison chart (the lower part in FIG. 1) for the samples.

[2] = 7.5 mg/mu sprayed twice after imazamox/pyribenzoxim damage

## sodium iron chlorin [Example 21]
chlorophyllase
  IC50 for chlorophyllase inhibition activity: 5.22 ppm
Sheath blight in rice
  Corrected control: 45.16%
  Disease index: 21.61%
  Diseased plant rate: 10.4%
Leaf blast in rice
  Average disease index: 20.09%
  Average incidence rate: 8.0%
  Corrected control effect: 43.93%
tobacco; 0.05 ppm sprayed twice
  Leaf length: 76.0 cm
  Leaf width: 28.5 cm
  Plant height: 114.2 cm
  Weight/leaf: 8.4 g
  Yield: 133.75 kg/mu
  Yield increase rate: 9.4%
tobacco; 0.10 ppm sprayed twice
  Leaf length: 77.2 cm
  Leaf width: 28.9 cm
  Plant height: 116.7 cm
  Weight/leaf: 8.7 g
  Yield: 138.67 kg/mu
  Yield increase rate: 13.5%
tobacco; 0.20 ppm sprayed twice
  Leaf length: 75.6 cm
  Leaf width: 28.4 cm
  Plant height: 114.3 cm
  Weight/leaf: 8.4 g
  Yield: 133.59 kg/mu
  Yield increase rate: 9.3%
tobacco; 0.30 ppm sprayed twice
  Leaf length: 74.7 cm
  Leaf width: 28 cm
  Plant height: 114.5 cm
  Weight/leaf: 8.3 g
  Yield: 132.54 kg/mu
  Yield increase rate: 8.5%
[1]; 2.0 ppm injected into leaves
  lesion area after LT263 inoculation compared with DDW: significantly reduce a lesion area
[1]; 20.0 ppm injected into leaves
  lesion area after LT263 inoculation compared with DDW: significantly reduce a lesion area
Phytophthora capsici
  Control effect: 71.89%
  Disease index: 24.36
rice; [2]
  Actual yield: 675 kg/mu
  Ear number/mu: 275945.5
  Filled grain number/ear: 97.64
  Grain number/ear: 104.5
  Seed set rate: 0.9344
  Theoretical yield: 816.8 kg/mu
  Thousand-grain weight: 30.30 g
rice; 7.5 mg/mu sprayed twice, versus clear water
  increase of yield per mu: ≥ 22%
DTA/TG thermal analysis
  thermal stability compared with the acidic sample: significantly-stronger thermal stability
